Results on two compounds are retold here after patent US20040014772A1, “Compositions and methods for treating glomerular disorders” (priority 2000, published 2004).

“Also recorded” adds a separate entry of the source.

Data set [1] concerns glomeruli of PAN-treated rats. As to the kind of experiment: Bleomycin detectable iron assay in glomeruli of PAN-treated rats. In kind it is in vivo, rat. The settings on record: for bleomycin detectable iron content in the glomeruli: PAN-treated rats, CM 120 mg/kg, PB 400 mg/kg or PIP 85 mg/kg ip, 6 hours, day 4, day 7. The method, then: Glomeruli were isolated by a combination of sieving and differential centrifugation as described in Ueda et al, 19996, Kidney Intl. 49:370-373, and Baliga et al, 1992, Am. J. Physiol. 263:214-221. Glomeruli isolated from two rats were pooled together (as N of 1) for the isolation of microsomes. Iron capable of catalyzing free radical reactions was measured by bleomycin detectable iron assay as described by Gutteridge et al, 1981, Biochem. J. 199:263-265, Gutteridge et al, 1982, Biochem. J. 206:605-609, Baliga et al, 1993, Bioche.

The test system of a further data set is ferritin. Briefly: Ferritin immunohistochemistry in kidney of PAN-treated rats. It is filed as in vivo, rat. The method, then: (§1) Kidney cortical sections were fixed in 10% buffered formalin for 6 hours and embedded in paraffin. After deparaffinization and antigen retrieval, the sections were immunolabeled and visualized according to an avidin-biotin complex (ABC) method. The primary antibody for detection of ferritin was polyclonal anti-Ferritin (L subunit) antibody (605022; Boehringer Mannheim Corp., Indianapolis, Ind., USA).

For data set [2], the system named is glomerular epithelial cells GEC. Briefly: PAN induced catalytic iron release from GEC (bleomycin detectable iron). The settings on record: PAN 1.5 mM 1 h; preincubation CM 2 mM, PB 25 μM, RN 1 mM, PIP 0.2 mM, pyruvate 10 mM. In kind it is cell-based, rat. The procedure:
Iron capable of catalyzing free radical reactions was measured by bleomycin detectable iron assay as described by Gutteridge et al, 1981, Biochem. J. 199:263-265, Gutteridge et al, 1982, Biochem. J. 206:605-609, Baliga et al, 1993, Bioche. J. 291:901-905, Baliga et al, 1996, Kidney Int. 49:362-369, Baliga et al, Kidney Int. 53:394-401, Ueda et al, 1996, Kidney Int. 49:370-373, Baliga et al, 1998, Kidney Int. 54:1562-1569.
Confluent cell monolayer was washed three times with Chelex-treated HBSS to remove as much contaminating iron as possible. The GEC monolayer was then incubated in Chelex-treated HBSS with cytotoxic dose of PAN for a period time at 37° C. before substantial cell killing and after significant iron release occurs (1.5 mM, 60 min, based on a time course study on iron release induced by PAN, data not shown). The incubation medium was then collected for the measurement of catalytic iron using bleomycin detectable iron assay as mentioned above. To determine the effect of CYP inhibitors on the iron release, GEC monolayer was preincubated with CM (2 mM), RN (1 mM, as a control of CM) for 30 min or PB (25 uM) for 60 min in Chelex-treated HBSS at 37° C. After the incubation, the medium with CYP inhibitor was discarded and then the cell monolayers were washed twice with chelex-treated HBSS prior to the incubation of PAN.

The nature of data set [3]: Renal function (serum creatinine, BUN) in PAN-treated rats. It is filed as in vivo, rat. The settings on record: PAN-treated rats with or without PIP or CM. The procedure:
BUN and creatinine were measured by using assay kits from Sigma.

In a further data set the test system is heme oxidase (HO-1). As to the kind of experiment: HO-1 induction in kidney of PAN-treated rats (immunohistochemistry, western blot, RT-PCR). In kind it is in vivo, rat.
Excerpt: The microsome fraction obtained was subjected to SDS-page electrophoresis in 1 mm slab gels. The separated forms were transferred from gel to a nitrocellulose sheet using a Mini Trans-blot electroblotting unit. The primary antibodies were monoclonal anti-HO-1 (OSA-111, StressGen, Victoria, BC, Canada) and monoclonal anti-CYP2B1 (PM25, Oxford Biomedical Research, Oxford, Mich., USA). Subsequent to primary and secondary antibody (peroxidase-labeled) treatment, the blots were visualized by enhanced chemiluminescence method.
as §1
RNA was isolated from the kidney cortex using TRIzol Reagant (Gibco, BRL, Gaithersburg, Md., USA). Revers transcription of […] of total RNA was carried out using Moloney murine leukemia virus reverse transcriptase (Gibco, BRL). The resulting first-strand cDNA preparations were used as templates for PCR. HO-1 primer described by Paschen et al (Neurosci Lett, 1994, 180:5-8.) were purchased from Gibco, BRL. The sense primer was: %′-[…]-3′, and the antisense 5′-[…]-3′. […]

Data set [4] has as its system microsomal CYP isolated from GEC. Briefly: H2O2 generation and catalytic iron release from microsomes isolated from GEC. It is filed as biochemical, rat. Further details: H2O2 generation from GEC microsomal fraction: dose or concentration left out as unconfirmed. The procedure: The generation of H2O2 and catalytic iron from microsomal CYP isolated from GEC was also analyzed.

With `CN/C(=N/CCSCc1nc[nH]c1C)NC#N` [CM, cimetidine], in data set [1], the “bleomycin detectable iron content in the glomeruli” value is given as “significantly prevent the increase; also recorded: significantly prevented this increase”. In addition, the “ferritin content in the glomeruli and the tubules” value in the data set on ferritin is given as “markedly reduced the up-regulation”. Further, in data set [2], the “bleomycin detectable (catalytic) iron release from GEC” value is “drastically prevents the increase; also recorded: prevented the increase”.
`CN(C)c1ncnc2c1ncn2[C@@H]1O[C@H](CO)[C@@H](N)[C@H]1O` [PAN, puromycin aminonucleoside]: in data set [3] (control 0.72±0.2), the serum creatinine stood at 0.85 ± 0.2 mg/dL. The compound further displayed a BUN in data set [3] (control 21±3, P<0.05 vs control) of 33 ± 4 mg/dL. In addition, the “bleomycin detectable iron content in the glomeruli” value in data set [1] was “markedly elevated”. Besides, the “catalytic iron content in the glomeruli (bleomycin detectable iron assay)” value in data set [1] (rats 7 days after PAN 7.5 mg/100 g BW iv, control value 39, N=3, P<0.01) is recorded as 160 nmol/mg protein. The “HO-1 induction in the glomeruli and tubules” value in the data set on heme oxidase (HO-1) (PAN-treated rats) was “marked induction”. The “HO-1 mRNA expression in the kidney” value in the data set on heme oxidase (HO-1) (RT-PCR vs GAPDH, one hour to day 4 after PAN) was “significantly increase”. Moreover, the “ferritin content in the glomeruli and the tubules” value in the data set with ferritin is listed as “significant increase”. Also, in data set [2], the “bleomycin detectable (catalytic) iron release from GEC” value is “significant increase”. Moreover, in data set [4] (PAN), the “H2O2 generation from GEC microsomal fraction” value is reported as “H2O2 generation in a time dependent fashion”. The “catalytic iron release from GEC microsomal fraction” value in data set [4] (PAN 91.5 mM) as printed) is “marked increase”.
